Experimental data: ChEMBL document CHEMBL1201862, “PubChem BioAssay data set” (2004)
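Briefly, cells in 96-well plates were exposed to five compound concentrations for 48 h, and endpoints were estimated by linear interpolation. Here, GI50 denotes the concentration required for 50% inhibition of growth.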 Activity calls are given as the source filed them. No stated cut-off is given here; in the data, active = GI50 up to about 1.1 µM and inactive = higher.

What was measured:
Assay in all cases: growth of human tumour cells (NCI), 48 h
HCT-116 = test system: HCT-116
HCT-15 = test system: HCT-15
SNB-75 = test system: SNB-75
UACC-257 = test system: UACC-257
SW-620 = test system: SW-620
NCI-H522 = test system: NCI-H522
MDA-MB-231 = test system: MDA-MB-231
SK-OV-3 = test system: SK-OV-3
T47D = test system: T47D
SK-MEL-28 = test system: SK-MEL-28
CAKI-1 = test system: CAKI-1
SF-539 = test system: SF-539
NCI-H23 = test system: NCI-H23
EKVX = test system: EKVX
OVCAR-3 = test system: OVCAR-3
IGROV-1 = test system: IGROV-1
SF-268 = test system: SF-268
HOP-62 = test system: HOP-62
ACHN = test system: ACHN
BT-549 = test system: BT-549
OVCAR-4 = test system: OVCAR-4
SF-295 = test system: SF-295
SN12C = test system: SN12C
U-251 = test system: U-251
NCI/ADR-RES = test system: NCI/ADR-RES
NCI-H460 = test system: NCI-H460
HT-29 = test system: HT-29
MDA-MB-435 = test system: MDA-MB-435
KM12 = test system: KM12
HL-60 = test system: HL-60
MCF7 = test system: MCF7
PC-3 = test system: PC-3
SR = test system: SR
TK-10 = test system: TK-10
786-0 = test system: 786-0
A498 = test system: A498
Malme-3M = test system: Malme-3M
RXF 393 = test system: RXF 393
CCRF-CEM = test system: CCRF-CEM
SK-MEL-5 = test system: SK-MEL-5
MOLT-4 = test system: MOLT-4
MDA-N = test system: MDA-N
NCI-H226 = test system: NCI-H226
A549 = test system: A549
LOX IMVI = test system: LOX IMVI
DU-145 = test system: DU-145
UO-31 = test system: UO-31
OVCAR-8 = test system: OVCAR-8
OVCAR-5 = test system: OVCAR-5
K562 = test system: K562
COLO 205 = test system: COLO 205
Hs-578T = test system: Hs-578T
RPMI-8226 = test system: RPMI-8226
HOP-92 = test system: HOP-92
UACC-62 = test system: UACC-62
HCC 2998 = test system: HCC 2998
SNB-19 = test system: SNB-19
SK-MEL-2 = test system: SK-MEL-2
M14 = test system: M14

O=c1c2cc(-c3ccccc3)sc2nc2n1N=C(c1ccccc1)CS2
GI50 (HCT-116): 34.8 µM (inactive) | GI50 (HCT-15): 84.3 µM | GI50 (SNB-75): 19.1 µM (inactive) | GI50 (UACC-257): 24.1 µM (inactive) | GI50 (SW-620): 69.5 µM (inactive) | GI50 (NCI-H522): 22.4 µM (inactive) | GI50 (MDA-MB-231): 39.8 µM (inactive) | GI50 (SK-OV-3): 10.6 µM (inactive) | GI50 (T47D): 9.55 µM (inactive) | GI50 (SK-MEL-28): 23.6 µM (inactive) | GI50 (CAKI-1): 13.5 µM (inactive) | GI50 (SF-539): 27.9 µM (inactive) | GI50 (NCI-H23): 76 µM (inactive) | GI50 (EKVX): 24.9 µM (inactive) | GI50 (OVCAR-3): 18.2 µM (inactive) | GI50 (IGROV-1): > 10 µM (inactive) | GI50 (SF-268): 24.3 µM (inactive) | GI50 (HOP-62): 5.02 µM (inactive) | GI50 (ACHN): 11.4 µM (inactive) | GI50 (BT-549): 18.4 µM (inactive) | GI50 (OVCAR-4): 15.8 µM (inactive) | GI50 (SF-295): 15.5 µM (inactive) | GI50 (SN12C): 27 µM (inactive) | GI50 (U-251): 19.7 µM (inactive) | GI50 (NCI/ADR-RES): 13.4 µM (inactive) | GI50 (NCI-H460): 25.1 µM (inactive) | GI50 (HT-29): > 10 µM (inactive) | GI50 (MDA-MB-435): 37.5 µM (inactive) | GI50 (KM12): 31 µM (inactive) | GI50 (HL-60): > 100 µM (inactive) | GI50 (MCF7): 14.6 µM (inactive) | GI50 (PC-3): 28.9 µM (inactive) | GI50 (SR): > 100 µM (inactive) | GI50 (TK-10): 40.3 µM (inactive) | GI50 (786-0): 13.8 µM (inactive) | GI50 (A498): 21.4 µM (inactive) | GI50 (Malme-3M): 33.3 µM (inactive) | GI50 (RXF 393): > 10 µM (inactive) | GI50 (CCRF-CEM): 57.7 µM (inactive) | GI50 (SK-MEL-5): 20.6 µM (inactive) | GI50 (MOLT-4): > 100 µM (inactive) | GI50 (MDA-N): 34.9 µM (inactive) | GI50 (NCI-H226): 30.6 µM (inactive) | GI50 (A549): 21.4 µM (inactive) | GI50 (LOX IMVI): 27.3 µM (inactive) | GI50 (DU-145): 94.4 µM (inactive) | GI50 (UO-31): 62.2 µM (inactive) | GI50 (OVCAR-8): 32.1 µM (inactive) | GI50 (OVCAR-5): > 100 µM (inactive) | GI50 (K562): > 100 µM (inactive) | GI50 (COLO 205): 79.3 µM (inactive) | GI50 (Hs-578T): 8.63 µM (inactive) | GI50 (RPMI-8226): > 100 µM (inactive) | GI50 (HOP-92): 12.1 µM (inactive) | GI50 (UACC-62): 12.4 µM (inactive) | GI50 (HCC 2998): 36.5 µM (inactive)

CCC1CCN/C(=N/S(=O)(=O)c2cc(C)c(Cl)cc2S)N1 (stereo not given)
GI50 (HCT-116): 24.7 µM (inactive) | GI50 (HCT-15): 38.5 µM | GI50 (SNB-75): 40 µM (inactive) | GI50 (UACC-257): 42.9 µM (inactive) | GI50 (SW-620): 28.7 µM (inactive) | GI50 (NCI-H522): 27.7 µM (inactive) | GI50 (MDA-MB-231): 44.8 µM (inactive) | GI50 (SNB-19): 30.2 µM (inactive) | GI50 (SK-OV-3): 40.5 µM (inactive) | GI50 (T47D): 26.8 µM (inactive) | GI50 (SK-MEL-28): 52.7 µM (inactive) | GI50 (CAKI-1): 30 µM (inactive) | GI50 (SF-539): 29.4 µM (inactive) | GI50 (EKVX): 32.5 µM (inactive) | GI50 (IGROV-1): 24.2 µM (inactive) | GI50 (SF-268): 57 µM (inactive) | GI50 (HOP-62): 24.3 µM (inactive) | GI50 (ACHN): 34.6 µM (inactive) | GI50 (BT-549): 17.7 µM (inactive) | GI50 (OVCAR-4): 24.3 µM (inactive) | GI50 (SN12C): 43.3 µM (inactive) | GI50 (U-251): 13.8 µM (inactive) | GI50 (SK-MEL-2): 26.4 µM (inactive) | GI50 (NCI/ADR-RES): 38.7 µM (inactive) | GI50 (NCI-H460): 8.2 µM (inactive) | GI50 (HT-29): 30.1 µM (inactive) | GI50 (MDA-MB-435): 22.9 µM (inactive) | GI50 (HL-60): 30.8 µM (inactive) | GI50 (MCF7): 33.3 µM (inactive) | GI50 (PC-3): 50.2 µM (inactive) | GI50 (SR): 35.4 µM (inactive) | GI50 (TK-10): 37.7 µM (inactive) | GI50 (786-0): 33.5 µM (inactive) | GI50 (A498): > 100 µM (inactive) | GI50 (Malme-3M): 37.2 µM (inactive) | GI50 (RXF 393): 76.2 µM (inactive) | GI50 (CCRF-CEM): 25.9 µM (inactive) | GI50 (SK-MEL-5): > 100 µM (inactive) | GI50 (MOLT-4): 21.7 µM (inactive) | GI50 (MDA-N): 33 µM (inactive) | GI50 (NCI-H226): 26.7 µM (inactive) | GI50 (A549): > 100 µM (inactive) | GI50 (LOX IMVI): 24.1 µM (inactive) | GI50 (DU-145): 43.7 µM (inactive) | GI50 (M14): 35.7 µM (inactive) | GI50 (UO-31): 36.3 µM (inactive) | GI50 (OVCAR-8): 19.8 µM (inactive) | GI50 (OVCAR-5): 22.3 µM (inactive) | GI50 (K562): 32.4 µM (inactive) | GI50 (COLO 205): 39.2 µM (inactive) | GI50 (Hs-578T): 28.4 µM (inactive) | GI50 (RPMI-8226): 24.2 µM (inactive) | GI50 (HOP-92): 50.9 µM (inactive) | GI50 (UACC-62): 14 µM (inactive) | GI50 (HCC 2998): 43.2 µM (inactive)

O=C1Oc2ccccc2C(=O)/C1=C1/C=C(c2ccccc2)SS1
GI50 (HCT-116): 56.6 µM (inactive) | GI50 (HCT-15): 40 µM | GI50 (SNB-75): > 100 µM (inactive) | GI50 (UACC-257): > 100 µM (inactive) | GI50 (SW-620): > 100 µM (inactive) | GI50 (NCI-H522): 49.3 µM (inactive) | GI50 (MDA-MB-231): 80.4 µM (inactive) | GI50 (SNB-19): 81.8 µM (inactive) | GI50 (SK-OV-3): > 100 µM (inactive) | GI50 (T47D): > 100 µM (inactive) | GI50 (SK-MEL-28): > 100 µM (inactive) | GI50 (CAKI-1): 49.2 µM (inactive) | GI50 (SF-539): > 100 µM (inactive) | GI50 (NCI-H23): > 100 µM (inactive) | GI50 (EKVX): > 100 µM (inactive) | GI50 (OVCAR-3): 71.1 µM (inactive) | GI50 (IGROV-1): 86.5 µM (inactive) | GI50 (SF-268): 86.7 µM (inactive) | GI50 (HOP-62): > 100 µM (inactive) | GI50 (ACHN): > 100 µM (inactive) | GI50 (BT-549): > 100 µM (inactive) | GI50 (OVCAR-4): 91 µM (inactive) | GI50 (SF-295): > 100 µM (inactive) | GI50 (SN12C): 69 µM (inactive) | GI50 (U-251): 76 µM (inactive) | GI50 (SK-MEL-2): > 100 µM (inactive) | GI50 (NCI/ADR-RES): 60.1 µM (inactive) | GI50 (NCI-H460): > 100 µM (inactive) | GI50 (HT-29): 40.6 µM (inactive) | GI50 (MDA-MB-435): 48.9 µM (inactive) | GI50 (KM12): > 100 µM (inactive) | GI50 (HL-60): 21.9 µM (inactive) | GI50 (MCF7): > 100 µM (inactive) | GI50 (PC-3): > 100 µM (inactive) | GI50 (SR): 28.3 µM (inactive) | GI50 (TK-10): > 100 µM (inactive) | GI50 (786-0): > 100 µM (inactive) | GI50 (A498): > 100 µM (inactive) | GI50 (Malme-3M): 96.4 µM (inactive) | GI50 (RXF 393): 63.2 µM (inactive) | GI50 (CCRF-CEM): 22.6 µM (inactive) | GI50 (SK-MEL-5): > 100 µM (inactive) | GI50 (MOLT-4): 30.4 µM (inactive) | GI50 (MDA-N): 34.8 µM (inactive) | GI50 (NCI-H226): 24.3 µM (inactive) | GI50 (A549): > 100 µM (inactive) | GI50 (LOX IMVI): 64.7 µM (inactive) | GI50 (DU-145): 85.5 µM (inactive) | GI50 (M14): 43.8 µM (inactive) | GI50 (UO-31): > 100 µM (inactive) | GI50 (OVCAR-8): > 100 µM (inactive) | GI50 (OVCAR-5): > 100 µM (inactive) | GI50 (K562): 42.5 µM (inactive) | GI50 (COLO 205): 57.5 µM (inactive) | GI50 (Hs-578T): > 100 µM (inactive) | GI50 (RPMI-8226): > 100 µM (inactive) | GI50 (HOP-92): 15.6 µM (inactive) | GI50 (UACC-62): 82.8 µM (inactive) | GI50 (HCC 2998): 96.8 µM (inactive)
